{"source": "patent US7510843B2", "about": "“Use of a polypeptide for detecting, preventing or treating a pathological condition associated with a degenerative, neurological or autoimmune disease” (Biomerieux S.A., priority 1999, dated 2009)", "key": {"[1]": {"tested_on": "GM2AP and Saposin B proteins in the urines", "assay": "Elisa assay of GM2AP and Saposin B in the urine of an MS patient after a treatment flash", "assay_type": "in vivo, human", "details": "MS patient No. 2, progressive form, up to 23 days; increase again, high at D60", "text": "(§1) Urines of this patient were collected during the progression of their disease. The patient was hospitalized on D0 for an attack."}, "[2]": {"assay": "Clinical monitoring of an MS patient after a treatment flash", "assay_type": "in vivo, human", "details": "MS patient No. 2, progressive form, flash on D1 after attack; worsening signs at D60", "text": "as §1"}}, "data": [{"compound": "O=P1(N(CCCl)CCCl)NCCCO1", "note": "(centres unmarked) [Endoxan, cyclophosphamide]", "values": [{"measurement": "GM2AP and Saposin B concentrations in urine over time after the flash", "setting": "[1]", "result": "decrease gradually over time"}, {"measurement": "clinical effect of the flash", "setting": "[2]", "result": "clinical improvement"}]}]}
